Consider 21 compounds from ChEMBL document CHEMBL1148805 (J Med Chem, 2007).

Calls of active or inactive are those of the source. No cut-off for these calls is given here. Bounds are passed on as bounds.

Series [1] concerns the target Aldo-keto reductase family 1 member B1 (Rattus norvegicus, UniProt P07943).
Description: Inhibition of ALR2 in Sprague-Dawley Albino rat lens
Series [2] deals with Aldo-keto reductase family 1 member A1 (Rattus norvegicus, UniProt P51635).
Description: Inhibition of ALR1 in Sprague-Dawley Albino rat kidney
Series [3] deals with Brain. Nature of the series: tissue or blood. The following applies: Rattus norvegicus, Sprague-Dawley Albino.
In series [4] the test system is Brain. The experiment in a line: tissue or blood. Particulars: Rattus norvegicus, Sprague-Dawley Albino. This is another data set of the same source.
In series [5] the test system is Brain. The following applies: Rattus norvegicus, Sprague-Dawley Albino, 10 uM.

Chain of Aldo-keto reductase family 1 member A1 (P51635 whole entry, looked up): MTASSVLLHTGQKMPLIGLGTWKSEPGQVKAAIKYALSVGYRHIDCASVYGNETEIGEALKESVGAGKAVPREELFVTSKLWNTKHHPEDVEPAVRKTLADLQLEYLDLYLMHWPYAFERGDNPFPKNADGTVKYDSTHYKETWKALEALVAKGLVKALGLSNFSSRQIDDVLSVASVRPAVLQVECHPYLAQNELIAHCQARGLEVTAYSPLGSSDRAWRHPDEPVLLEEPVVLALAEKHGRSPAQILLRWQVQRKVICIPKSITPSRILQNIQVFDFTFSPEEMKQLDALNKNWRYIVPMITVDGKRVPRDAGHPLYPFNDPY
Description for physchem: Acid dissociation constant, pKa of the compound

As usually defined, the IC50 is the concentration at which inhibition is half-maximal. The low end stands for greater potency in that assay, the high end for weaker potency in that assay. For orientation: inhibition means the percentage by which the read-out fell short of the control. The low end stands for a response near the control, the high end for a response far below the control. Regarding `O=c1cc(-c2ccc(O)cc2)nc2c(O)cccn12`, the IC50 in series [1] is 2.07 µM; in series [2] it was over 10 µM. In the series with Brain [3], this compound showed an inhibition at 100 µM of 43.2%. In the series on Brain [4], this compound returned an inhibition at 10 µM of 11.8%.

The term pKa denotes the pH at which an ionisable group is half protonated. Lower therefore signals a stronger acid or weaker base. With `O=c1cc(-c2ccc(O)cc2)nc2ccccn12`, the IC50 in series [1] was 4.56 µM; in series [2] it was over 10 µM. The compound further showed a pKa in the series “physchem” of 7.6. Further, in the series with Brain [3], the inhibition at 100 µM amounted to 23.7%. The outcome in the series with Brain [5] was inactive.

As for `O=c1cc(Cc2ccccc2)nc2cccc(O)n12`, the IC50 is 55 µM in series [1] and over 10 µM in series [2]. In the series on Brain [3], at 100 µM the inhibition was 45.7%. Also, in the series on Brain [4], 10 µM produced 19.3% inhibition.

`COc1ccc(-c2cc(=O)n3cccc(O)c3n2)cc1`: the IC50 in series [1] and in series [2] was over 10 µM each time. Further, the inhibition at 100 µM in the series with Brain [3] amounted to 11.5%. In addition, in the series with Brain [4], the inhibition at 10 µM amounted to 3.4%.

Regarding `CC(=O)N(O)CCCCCNC(=O)CCC(=O)N(O)CCCCCNC(=O)CCC(=O)N(O)CCCCCN` [DEFEROXAMINE], the inhibition at 100 µM with Brain [3] was 72%.

`COc1ccc(-c2cc(=O)n3ccccc3n2)cc1OC`: the IC50 in series [1] and in series [2] was over 10 µM throughout. In addition, in the series on Brain [3], testing at 100 µM gave an inhibition of 18.8%. Moreover, in the series with Brain [5], the outcome was inactive.

For `O=c1cc(-c2ccc(O)cc2)nc2cccc(O)n12`, the half-maximal inhibitory concentration (IC50) was 0.42 µM in series [1] and over 10 µM in series [2]. In addition, the inhibition at 100 µM in the series on Brain [3] came out at 42.4%. In the series on Brain [4], this compound had an inhibition at 10 µM of 21.2%.

`O=c1cc(-c2ccc(O)c(O)c2)nc2ccccn12`: the IC50 in series [1] was 0.67 µM; in series [2], over 10 µM. The same compound returned a pKa in “physchem” of 6.8. The inhibition at 100 µM with Brain [3] turned out to be 71.6%. The same compound showed an inhibition at 10 µM in the series on Brain [4] of 26.6%.

As for `COc1ccc(Cc2cc(=O)n3c(O)cccc3n2)cc1`, the IC50 in series [1] and in series [2] was over 10 µM in each case. The compound further returned an inhibition at 100 µM with Brain [3] of 42.4%. In the series with Brain [4], the inhibition at 10 µM came to 18.9%.

For `O=c1cc(-c2ccc(O)c(O)c2)nc2cccc(O)n12`, the concentration for half-maximal inhibition (IC50) in series [1] is 0.1 µM; in series [2], over 10 µM. The same compound displayed an inhibition at 100 µM in the series on Brain [3] of 85.9%. For the same compound, at 10 µM the inhibition with Brain [4] was 66.5%.

`Cc1c(C)c2c(c(C)c1O)CC[C@@](C)(CCCC(C)CCCC(C)CCCC(C)C)O2` (single isomer, unassigned) [ALPHA-TOCOPHEROL] showed an inhibition at 100 µM in the series on Brain [3] of 18.2%.

Take `O=c1cc(-c2ccccc2)nc2c(O)cccn12`: the IC50 in series [1] and in series [2] was over 10 µM throughout. Besides, the pKa in the series “physchem” amounted to 10.2. Also, the inhibition at 100 µM with Brain [3] was 11.9%. The inhibition at 10 µM with Brain [4] turned out to be 5.9%.

In the case of `COc1ccc(-c2cc(=O)n3cccc(O)c3n2)cc1OC`, the IC50 in series [1] and in series [2] was over 10 µM throughout. In the series on Brain [3], the inhibition at 100 µM worked out at 8.8%. In the series on Brain [4], the inhibition at 10 µM turned out to be 1.2%.

Regarding `COc1ccc(-c2cc(=O)n3c(O)cccc3n2)cc1`, the values for the half-inhibitory concentration (IC50) in series [1] and in series [2] were 0.74 µM and over 10 µM, respectively. Also, at 100 µM the inhibition in the series with Brain [3] was 82.8%. In the series with Brain [4], testing at 10 µM gave an inhibition of 50.4%.

On to `COc1ccc(Cc2cc(=O)n3c(O)cccc3n2)cc1OC`, for which the IC50 in series [1] and in series [2] was over 10 µM throughout. In addition, the inhibition at 100 µM in the series with Brain [3] worked out at 45.1%. Besides, 10 µM produced 25.8% inhibition in the series on Brain [4].

For `O=c1cc(-c2ccccc2)nc2ccccn12`, the IC50 in series [1] and in series [2] was over 10 µM in each case. Further, at 100 µM the inhibition in the series on Brain [3] was 22.4%. The compound further came in with an inhibition at 10 µM in the series with Brain [4] of 10.8%.

For the compound `O=c1cc(-c2ccc(O)c(O)c2)nc2c(O)cccn12`, the IC50 in series [1] is 0.45 µM; in series [2] it was over 10 µM. 100 µM produced 81.5% inhibition with Brain [3]. In addition, the inhibition at 10 µM in the series with Brain [4] was 48.2%.

Take `COc1ccc(-c2cc(=O)n3ccccc3n2)cc1`: the concentration for half-maximal inhibition (IC50) in series [1] and in series [2] was over 10 µM each time. Further, the inhibition at 100 µM in the series with Brain [3] amounted to 15.1%. For the same compound, the inhibition at 10 µM in the series on Brain [4] was 8.3%.

For `O=c1cc(Cc2ccc(O)cc2)nc2cccc(O)n12`, the values for the IC50 in series [1] and in series [2] were 44 µM and over 10 µM, respectively. Besides, 100 µM produced 51.4% inhibition in the series with Brain [3]. Moreover, the inhibition at 10 µM with Brain [4] turned out to be 11.5%.

On to `COc1ccc(-c2cc(=O)n3c(O)cccc3n2)cc1OC`, for which the IC50 was 100 µM in series [1] and over 10 µM in series [2]. In the series on Brain [3], this compound displayed an inhibition at 100 µM of 64.7%. The same compound displayed an inhibition at 10 µM in the series with Brain [4] of 28.5%.

For `O=c1cc(Cc2ccc(O)c(O)c2)nc2cccc(O)n12`, the figures for the IC50 in series [1] and in series [2] were 12 µM and over 10 µM, respectively. In the series with Brain [3], this compound returned an inhibition at 100 µM of 89.9%. Also, testing at 10 µM in the series with Brain [4] gave an inhibition of 56.7%.
